From patent US20170119806A1, “[…] LACTONE DERIVATIVES AND METHODS OF MAKING AND USING THEREOF” (OHIO STATE INNOVATION FOUNDATION, priority 2014, published 2017)
Entries after “also recorded” stand apart in the source; their conditions may differ.

How the values were obtained:
topo IIα = topo IIα (Homo sapiens, UniProt P11388); assay: Topoisomerase II assay (DNA cleavage/relaxation); type: biochemical; settings: 100 μM test compound
Text: The formation of linear DNA was detected by separating the SDS-treated reaction products using ethidium bromide gel electrophoresis and quantified by accounting for the relationship between fluorescence and relative band intensity for open circular (OC), linear (LNR), supercoiled (SC), and relaxed (RLX) configurations of DNA.
Topoisomerase II Assay. […] The formation of linear DNA was detected by separating the SDS-treated reaction products using ethidium bromide gel electrophoresis by a modification of a previously described procedure (Hasinoff B B et al. Mol. Pharmacol. 2005, 67, 937-947). In this system, topo II-mediated catalytic conversion of supercoiled pBR322 DNA to the “relaxed” form of plasmic' DNA can also be observed. A 20 μL cleavage assay reaction mixture contained 250 ng topo IIα protein, 160 ng pBR322 plasmid DNA (NEB, Ipswich, Mass.), 1.0 mM ATP in assay buffer (10 mM Tris-HCl (pH 7.5), 50 mM KCl, 50 mM NaCl, 0.1 mM EDTA, 5 mM MgCl2, 2.5% glycerol), and 100 μM of test compounds or DMSO solvent, as indicated. Assay buffer (17 μL) and test compound/DMSO (1 μL) were mixed and allowed to sit at room temperature for 30 min after which 2 μL of topo IIα was added to initiate the reaction. Tubes were incubated at 37° C. for 15 min, and then quenched with 1% (v/v) SDS/10 mM disodium EDTA/200 mM NaCl. The mixture was treated subsequently with 0.77 mg/mL proteinase K (Sigma) at 55° C. for 60 min to digest the protein, and DNA bands were separated by electrophoresis (18 h at 2 V/cm) on an agarose gel (1.3% w/v) containing 0.7 μg/mL ethidium bromide in TAE buffer pH 8.0 (40 mM Tris base, 0.114% (v/v) glacial acetic acid, 2 mM EDTA). The DNA in the gel was imaged by its fluorescence on a Chemi-Doc XRS+ imager (Bio-Rad, Hercules, Calif.). Linear DNA was quantified by accounting for the relationship between fluorescence and relative band intensity for open circular (QC), linear (LNR), supercoiled (SC), and RLX (relaxed) configurations of DNA (Projan S J et al. Plasmid 1983, 9, 182-190), then calculating % of LNR from the total DNA content in each lane.

[1] = Solubility in aqueous solutions; type: physicochemical
[2] = tested on: HT-29 human colon cancer cells; assay: Cytotoxicity against HT-29 cells
Method: The cytotoxicity of the test compounds was screened against HT-29 cells by a previously reported procedure (Ren Y et al. J. Nat. Prod 2011, 74, 1117-1125). Paclitaxel and etoposide were used as positive controls.
All arylnaphthalene lignans isolated from P. poilanet in the present study and their semi-synthetic analogues were evaluated for their cytotoxicity against HT-29 human colon cancer cells, using paclitaxel as the positive control (Table 6) (Ren Y et al. J. Nat. Prod 2011, 74, 1117-1125).

NF-κB p65 = assay: Immunoblotting of p65 and p-p65 in NK cells; type: cell-based, human; settings: 10 μM TPCK, 10 μM PL-C and IL-12, 18 h
Method: (A) Purified primary human NK cells were treated with 5 and 10 μM PL-C for 18 h. The cells were harvested and lysed for immunoblotting using p65 and p-p65 Abs. β-Actin immunoblotting was included as the internal control. Data shown are for treatment with PL-C alone (top panel) or in combination with IL-12 (10 ng/mL) (middle panel) or IL-15 (100 ng/mL) (bottom panel) and are the representative plots of four donors with similar results. Numbers under each lane represent quantification of p-p65 or p65 via densitometry, after normalizing to β-actin. (B) NKL cells were treated, and data are presented as described in (A). Data from one of three independent experiments with similar results are shown. (C) Purified primary human NK (left panel) or NKL cells (right panel) were cotreated with 10 μM PL-C and IL-12 (10 ng/mL) in the presence or absence of the NF-κB inhibitor TPCK (10 μM) for 18 h. Supernatants were assayed for IFN-γ secretion by ELISA (top panel), and cells were harvested and lysed for immunoblotting of p-p65 (bottom panel). Representative data from one of three donors with the similar data (left panel) and the summary of three independent experiments with similar results (right panel) are shown. **p<0.01. Error bars represent SD.
Immunoblotting. Immunoblotting was performed as described previously (Yu J et al. Immunity 2006, 24, 575-590; Yu J et al. Blood 2010, 115, 274-281). […]

human primary NK cells = assay: IFN-γ production by NK cells (intracellular flow cytometry, ELISA); type: cell-based; settings: 10 μM TPCK, 10 μM PL-C and IL-12, 18 h
Method: (A) Chemical structure of PL-C (phyllanthusmin C, 4), (9) Healthy donor PBMCs (left panel) or enriched NK cells (right panel) were treated with DMSO vehicle control or 10 μM PL-C for 18 h in the presence of […] (10 ng/mL) or IL-15 (100 ng/mL). The cells were harvested and analyzed by intracellular flow cytometry to determine the frequency of IFN-γ^+ cells in CD56^+CD3^− NK cells (n=8 for PBMC and n=5 for enriched NK). (C) Highly purified (≧99.5%) human primary NK cells were treated with 10 μM PL-C for 18 h to determine the levels of IFN-γ secretion by ELISA. IFN-γ secretion from treatment with PL-C alone (left panel) or in combination with IL-12 (10 ng/mL, middle panel) or IL-15 (100 ng/mL, right panel) is shown. (D) Cells were treated as described in (C) and harvested at 12 h, IFNG mRNA expression was assessed by real-time RT-PCR, and the relative IFNG mRNA expression of each treatment was normalized to untreated vehicle control in the same donor. Data are shown as mean±SEM (n=6 in each treatment; error bars represent SEM). *p<0.05, **p<0.01, which denote statistical comparison between the two marked treatment groups (B-D). (E) Highly purified (≧99,5%) primary human NK cells were treated with 10 μM. PL-C in combination with various concentrations of IL-12 (10, 1, and 0.1 ng/mL) or IL-15 (100, 10, and 1 ng/mL) for 24 h to determine the levels of IFN-γ secretion. Representative data from one of three donors with the similar data are shown. *p<0.05, **p<0.01, which denote statistical comparison between the two marked treatment groups and are calculated from data of all tested donors. Error bars represent SD. […]
Isolation of PBMCs and NK cells. […] The purity of enriched NK cells was ≧80% assessed by flow cytometric analysis after staining with CD56-allophycocyanin and CD3-FITC Abs (BD Bio-sciences, San Jose, Calif.). […] The purity of magnetic bead-purified NK cells was ≧99.5%, as determined by the aforementioned flow cytometric analysis. […]

Sequence of topo IIα (P11388 whole entry): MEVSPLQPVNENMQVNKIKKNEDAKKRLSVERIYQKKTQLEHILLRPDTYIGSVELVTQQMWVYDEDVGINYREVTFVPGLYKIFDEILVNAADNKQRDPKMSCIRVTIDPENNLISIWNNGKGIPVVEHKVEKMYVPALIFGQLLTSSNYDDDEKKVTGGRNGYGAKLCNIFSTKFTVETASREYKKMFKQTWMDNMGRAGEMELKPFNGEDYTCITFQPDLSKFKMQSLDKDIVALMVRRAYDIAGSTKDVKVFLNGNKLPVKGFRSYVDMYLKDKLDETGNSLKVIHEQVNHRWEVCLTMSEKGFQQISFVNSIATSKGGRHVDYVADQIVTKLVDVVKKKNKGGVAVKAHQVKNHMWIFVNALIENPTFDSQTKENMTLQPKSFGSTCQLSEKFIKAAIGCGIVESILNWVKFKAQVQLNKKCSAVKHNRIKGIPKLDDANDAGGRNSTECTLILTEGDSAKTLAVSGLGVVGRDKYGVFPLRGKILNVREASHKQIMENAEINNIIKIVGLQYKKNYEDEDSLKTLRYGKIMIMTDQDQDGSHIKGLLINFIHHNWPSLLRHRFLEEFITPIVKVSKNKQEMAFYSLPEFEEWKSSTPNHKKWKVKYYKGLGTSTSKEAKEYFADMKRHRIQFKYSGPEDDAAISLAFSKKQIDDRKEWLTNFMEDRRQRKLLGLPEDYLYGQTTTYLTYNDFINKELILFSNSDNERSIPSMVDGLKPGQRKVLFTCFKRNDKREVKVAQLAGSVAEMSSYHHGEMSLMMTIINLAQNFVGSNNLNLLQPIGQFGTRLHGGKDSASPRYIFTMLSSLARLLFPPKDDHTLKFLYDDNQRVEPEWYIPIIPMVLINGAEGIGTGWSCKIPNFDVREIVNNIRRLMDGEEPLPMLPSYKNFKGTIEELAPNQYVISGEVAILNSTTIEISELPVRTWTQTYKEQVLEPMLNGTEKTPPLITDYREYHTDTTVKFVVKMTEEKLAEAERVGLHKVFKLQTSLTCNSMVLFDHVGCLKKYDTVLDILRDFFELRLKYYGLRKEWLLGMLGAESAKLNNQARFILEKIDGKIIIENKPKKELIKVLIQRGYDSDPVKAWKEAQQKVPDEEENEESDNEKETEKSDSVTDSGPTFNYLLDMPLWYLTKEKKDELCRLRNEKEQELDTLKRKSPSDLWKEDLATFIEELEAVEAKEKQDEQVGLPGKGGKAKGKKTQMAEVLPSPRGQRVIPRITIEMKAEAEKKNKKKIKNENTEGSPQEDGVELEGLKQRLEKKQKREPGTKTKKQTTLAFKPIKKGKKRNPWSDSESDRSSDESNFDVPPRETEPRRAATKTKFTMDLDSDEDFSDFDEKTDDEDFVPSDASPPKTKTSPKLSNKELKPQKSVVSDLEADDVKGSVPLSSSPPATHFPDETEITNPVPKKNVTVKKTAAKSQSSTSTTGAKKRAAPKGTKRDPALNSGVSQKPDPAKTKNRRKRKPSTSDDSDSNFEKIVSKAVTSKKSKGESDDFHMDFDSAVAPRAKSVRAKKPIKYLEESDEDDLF

Row | Molecule | topo IIα inhibition (in words) (topo IIα) | solubility in aqueous solutions [1] | EC50 ([2]; read-out: ED50, toxicity towards HT-29 cells, natural samples) | IC50 ([2]; read-out: IC50, cytotoxicity toward HT-29 cells) | effect on PL-C-induced p65 phosphorylation (NF-κB p65) | effect on PL-C-induced IFN-γ secretion (human primary NK cells)
1 | COc1cc2c(O[C@@H]3OC[C@H](OC(C)=O)[C@H](OC(C)=O)[C@H]3OC(C)=O)c3c(c(-c4ccc5c(c4)OCO5)c2cc1OC)C(=O)OC3 [Compound 7, 7-O-((2,3,4-tri-O-acetyl)-α-L-arabinopyranosyl) diphyllin] | not topo Ha inhibitors; also recorded: not topo IIα inhibitors | insoluble in aqueous solutions | 110 nM | 110 nM |  | 
2 | N-tosyl-L-phenylalanine chloromethyl ketone [TPCK, reference compound] |  |  |  |  | inhibited PL-C-induced p65 phosphorylation | inhibition of PL-C-induced IFN-γ secretion
